Data reported in patent publication US20050043326A1, “Compounds” (Pfizer Inc, priority 2003, published 2005).

Tests used:
[1] = system: TNFα release from human peripheral blood mononuclear cells; assay: Inhibition of TNFα release from LPS-stimulated human peripheral blood mononuclear cells (TNFα screen); assay type: cell-based; settings: 18 hours incubation, TNFα in supernatant by ELISA
Description: Venous blood is collected from healthy volunteers and the mononuclear cells purified by centrifugation through Histopaque (Ficoll) cushions. TNFα production from these cells is stimulated by addition of lipopolysaccharide. After 18 hours incubation in the presence of LPS, the cell supernatant is removed and the concentration of TNFα in the supernatant determined by ELISA.
(§1) Data are presented below for the Examples in which the TNFα and PDE4 inhibition are presented as IC50 values in nM.

PDE4 = PDE4 inhibition: hydrolysis of tritium labelled cAMP to AMP, SPA bead scintillation counting; assay type: biochemical; settings: tritium labelled cAMP incubated with PDE4, yttrium silicate SPA beads
Description: The PDE4 inhibitory activity of the nicotinamide derivatives of the formula (I) is determined by the ability of compounds to inhibit the hydrolysis of cAMP to AMP by PDE4 (Thompson J W, Teraski W L, Epstein P M, Strada S J., “Assay of nucleotidephosphodiesterase and resolution of multiple molecular forms of the isoenzyme”, Advances in cyclic nucleotides research, edited by Brooker G, Greengard P, Robinson G A. Raven Press, New York 1979, 10, p. 69-92). Tritium labelled cAMP is incubated with PDE4. Following incubation, the radiolabelled AMP produced is able to bind yttrium silicate SPA beads. These SPA beads subsequently produce light that can be quantified by scintillation counting. The addition of a PDE4 inhibitor prevents the formation of AMP from cAMP and counts are diminished. The IC50 of a PDE4 inhibitor can be defined as the concentration of a compound that leads to a 50% reduction in counts compared to the PDE4 only (no inhibitor) control wells.
as §1

## O=C(N[C@H]1CC[C@@H](NC(=O)c2cc(F)cnc2OC2CCSCC2)CC1)c1ccc(Cl)cc1O [Example 15, Syn-N-[4-(4-Chloro-2-hydroxy-benzoylamino)-cyclohexyl]-5-fluoro-2-(tetrahydro-thiopyran-4-yloxy)-nicotinamide]
[1]; PBMC
  IC50: 0.4 nM

## O=C(N[C@H]1CC[C@@H](NC(=O)c2cc(F)cnc2OC2CCSCC2)CC1)c1cc(F)ccc1O [Example 25, Syn-5-Fluoro-N-[4-(5-fluoro-2-hydroxy-benzoylamino)-cyclohexyl]-2-(tetrahydro-thiopyran-4-yloxy)-nicotinamide]
[1]; PBMC
  IC50: 0.8 nM

## O=C(N[C@H]1CC[C@@H](NC(=O)c2cc(Cl)cc(Cl)c2O)CC1)c1cc(F)cnc1OC1CCSCC1 [Example 26, Syn-N-[4-(3,5-Dichloro-2-hydroxy-benzoylamino)-cyclohexyl]-5-fluoro-2-(tetrahydro-thiopyran-4-yloxy)-nicotinamide]
[1]
  IC50: 14 nM

## O=C(N[C@H]1CC[C@@H](NC(=O)c2cc(F)cnc2OC2CCSCC2)CC1)c1cc(Cl)ccc1O [Example 27, Syn-N-[4-(5-Chloro-2-hydroxy-benzoylamino)-cyclohexyl]-5-fluoro-2-(tetrahydro-thiopyran-4-yloxy)-nicotinamide]
[1]; PBMC
  IC50: 0.7 nM

## Cc1cccc(C(=O)N[C@H]2CC[C@@H](NC(=O)c3cc(F)cnc3OC3CCSCC3)CC2)c1O [Example 28, Syn-5-Fluoro-N-[4-(2-hydroxy-3-methyl-benzoylamino)-cyclohexyl]-2-(tetrahydro-thiopyran-4-yloxy)-nicotinamide]
[1]; PBMC
  IC50: 12 nM

## O=C(N[C@H]1CC[C@@H](NC(=O)c2cc(F)cnc2OC2CCSCC2)CC1)c1ccccc1O [Example 29, Syn-5-Fluoro-N-[4-(2-hydroxy-benzoylamino)-cyclohexyl]-2-(tetrahydro-thiopyran-4-yloxy)-nicotinamide]
[1]; PBMC
  IC50: 0.4 nM

## O=C(N[C@H]1CC[C@@H](NC(=O)c2cc(O)nc3ccccc23)CC1)c1cc(F)cnc1OC1CCSCC1 [Example 30, Syn-2-Hydroxy-guinoline-4-carboxylic acid (4-{[5-fluoro-2-(tetrahydro-thiopyran-4-yloxy)-pyridine-3-carbonyl]-amino}-cyclohexyl)-amide]
[1]; PBMC
  IC50: 2 nM

## Cc1cc(C(=O)N[C@H]2CC[C@@H](NC(=O)c3cc(F)cnc3OC3CCSCC3)CC2)c2cc(O)ccc2n1 [Example 31, Syn-6-Hydroxy-2-methyl-quinoline-4-carboxylic acid (4-{[5-fluoro-2-(tetrahydro-thiopyran-4-yloxy)-pyridine-3-carbonyl]-amino}-cyclohexyl)-amide]
[1]; PBMC
  IC50: 1 nM

## O=C(N[C@H]1CC[C@@H](NC(=O)c2ccnc3c(O)cccc23)CC1)c1cc(F)cnc1OC1CCSCC1 [Example 32, Syn-8-Hydroxy-quinoline-4-carboxylic acid (4-{[5-fluoro-2-(tetrahydro-thiopyran-4-yloxy)-pyridine-3-carbonyl]-amino}-cyclohexyl)-amide]
[1]; PBMC
  IC50: 10 nM

## O=C(N[C@H]1CC[C@@H](NC(=O)c2cccc3cn[nH]c23)CC1)c1cc(F)cnc1OC1CCSCC1 [Example 33, Syn-1H-Indazole-7-carboxylic acid (4-{[5-fluoro-2-(tetrahydro-thiopyran-4-yloxy)-pyridine-3-carbonyl]-amino}-cyclohexyl)-amide]
[1]; PBMC
  IC50: 0.07 nM

## O=C(N[C@H]1CC[C@@H](NC(=O)c2cc(F)cnc2OC2CCSCC2)CC1)c1ccc2cn[nH]c2c1 [Example 34, Syn-1H-Indazole-6-carboxylic acid (4-{[5-fluoro-2-(tetrahydro-thiopyran-4-yloxy)-pyridine-3-carbonyl]-amino}-cyclohexyl)-amide]
[1]; PBMC
  IC50: 1 nM

## Cc1cc(C(=O)N[C@H]2CC[C@@H](NC(=O)c3cc(F)cnc3OC3CCSCC3)CC2)nn1C [Example 42]
PDE4
  IC50: 0.3 nM
[1]; PBMC
  IC50: 0.02 nM

## O=C(N[C@H]1CC[C@@H](NC(=O)c2cccn3c(CO)cnc23)CC1)c1cc(F)cnc1OC1CCSCC1 [Example 51, Syn-3-Hydroxymethyl-imidazo[1,2-a]pyridine-8-carboxylic acid (4-{[5-fluoro-2-(tetrahydro-thiopyran-4-yloxy)-pyridine-3-carbonyl]-amino}-cyclohexyl)-amide]
[1]; PBMC
  IC50: 0.1 nM

## Cc1cc(C(=O)N[C@H]2CC[C@@H](NC(=O)c3cc(F)cnc3OC3CCSCC3)CC2)nn1CCO [Example 52, Syn-5-Fluoro-N-(4-{[1-(2-hydroxy-ethyl)-5-methyl-1H-pyrazole-3-carbonyl]-amino}-cyclohexyl)-2-(tetrahydro-thiopyran-4-yloxy)-nicotinamide]
[1]; PBMC
  IC50: 0.03 nM

## O=C(N[C@H]1CC[C@@H](NC(=O)c2nn(CCO)c3ccccc23)CC1)c1cc(F)cnc1OC1CCSCC1 [Example 53, Syn-1-(2-Hydroxy-ethyl)-1H-indazole-3-carboxylic acid (4-{[5-fluoro-2-(tetrahydro-thiopyran-4-yloxy)-pyridine-3-carbonyl]-amino}-cyclohexyl)-amide]
[1]; PBMC
  IC50: 0.01 nM

## CCc1cc(C(=O)N[C@H]2CC[C@@H](NC(=O)c3cc(F)cnc3OC3CCSCC3)CC2)nn1CCO [Example 54, Syn-N-(4-{[5-Ethyl-1-(2-hydroxy-ethyl)-1H-pyrazole-3-carbonyl]-amino}-cyclohexyl)-5-fluoro-2-(tetrahydro-thiopyran-4-yloxy)-nicotinamide]
[1]; PBMC
  IC50: 0.1 nM

## CCc1cc(C(=O)N[C@H]2CC[C@@H](NC(=O)c3cc(F)cnc3OC3CCSCC3)CC2)n(CCO)n1 [Example 55, Syn-N-(4-{[5-Ethyl-2-(2-hydroxy-ethyl)-2H-pyrazole-3-carbonyl]-amino}-cyclohexyl)-5-fluoro-2-(tetrahydro-thiopyran-4-yloxy)-nicotinamide]
[1]; PBMC
  IC50: 17 nM

## CC(C)c1cc(C(=O)N[C@H]2CC[C@@H](NC(=O)c3cc(F)cnc3OC3CCSCC3)CC2)n(CCO)n1 [Example 56, Syn-5-Fluoro-N-(4-{[2-(2-hydroxy-ethyl)-5-isopropyl-2H-pyrazole-3-carbonyl]-amino}-cyclohexyl)-2-(tetrahydro-thiopyran-4-yloxy)-nicotinamide]
[1]; PBMC
  IC50: 20 nM

## CC(C)c1cc(C(=O)N[C@H]2CC[C@@H](NC(=O)c3cc(F)cnc3OC3CCSCC3)CC2)nn1CCO [Example 57, Syn-5-Fluoro-N-(4-{[1-(2-hydroxy-ethyl)-5-isopropyl-1H-pyrazole-3-carbonyl]-amino}-cyclohexyl)-2-(tetrahydro-thiopyran-4-yloxy)-nicotinamide]
[1]; PBMC
  IC50: 0.07 nM

## O=C(N[C@H]1CC[C@@H](NC(=O)c2cc(F)cnc2OC2CCSCC2)CC1)c1ccc(O)cc1O [Example 58, Syn-N-[4-(2,4-Dihydroxy-benzoylamino)-cyclohexyl]-5-fluoro-2-(tetrahydro-thiopyran-4-yloxy)-nicotinamide]
[1]; PBMC
  IC50: 1 nM

## Cc1cnc2c(C(=O)N[C@H]3CC[C@@H](NC(=O)c4cc(F)cnc4OC4CCSCC4)CC3)cccn12 [Example 60, Syn-3-Methyl-imidazo[1,2a]pyridine-8-carboxylic acid (4-{[5-fluoro-2-(tetrahydro-thiopyran-4-yloxy)-pyridine-3-carbonyl]-amino}-cyclohexyl)-amide]
[1]; PBMC
  IC50: 0.06 nM

## O=C(N[C@H]1CC[C@@H](NC(=O)c2cc(Cl)cnc2OC2CCSCC2)CC1)c1cc(CO)ccc1O [Example 61, Syn-5-Chloro-N-[4-(2-hydroxy-5-hydroxymethyl-benzoylamino)-cyclohexyl]-2-(tetrahydro-thiopyran-4-yloxy)-nicotinamide]
[1]; PBMC
  IC50: 3 nM

## Cc1cnc(OC2CCSCC2)c(C(=O)N[C@H]2CC[C@@H](NC(=O)c3cc(CO)ccc3O)CC2)c1 [Example 62, Syn-N-[4-(2-Hydroxy-5-hydroxymethyl-benzoylamino)-cyclohexyl]-5-methyl-2-(tetrahydro-thiopyran-4-yloxy)-nicotinamide]
[1]; PBMC
  IC50: 12 nM

## Cc1ccc(C(=O)N[C@H]2CC[C@@H](NC(=O)c3cc(F)cnc3OC3CCSCC3)CC2)c(O)c1 [Example 63, Syn-5-Fluoro-N-[4-(2-hydroxy-4-methyl-benzoylamino)-cyclohexyl]-2-(tetrahydro-thiopyran-4-yloxy)-nicotinamide]
PDE4
  IC50: 0.5 nM
[1]; PBMC
  IC50: 0.002 nM

## Cc1ccc(S(=O)(=O)N[C@H]2CC[C@@H](NC(=O)c3cc(F)cnc3OC3CCSCC3)CC2)cc1 [Example 69, Syn-5-Fluoro-2-(tetrahydro-thiopyran-4-yloxy)-N-[4-(toluene-4-sulfonylamino)-cyclohexyl]-nicotinamide]
[1]; PBMC
  IC50: 15 nM

## Cc1ccccc1S(=O)(=O)N[C@H]1CC[C@@H](NC(=O)c2cc(F)cnc2OC2CCSCC2)CC1 [Example 70, Syn-5-Fluoro-2-(tetrahydro-thiopyran-4-yloxy)-N-[4-(toluene-2-sulfonylamino)-cyclohexyl]-nicotinamide]
[1]; PBMC
  IC50: 2 nM

## O=C(NC1CCC(NS(=O)(=O)c2c(O)ccc3cccnc23)CC1)c1cc(F)cnc1OC1CCSCC1 (stereo not drawn) [Example 72, Syn-5-Fluoro-N-[4-(7-hydroxy-quinoline-8-sulfonylamino)-cyclohexyl]-2-(tetrahydro-thiopyran-4-yloxy)-nicotinamide]
[1]
  IC50: 0.001 nM

## O=C(NC1CCC(NS(=O)(=O)c2c(O)ccc3cccnc23)CC1)c1cccnc1OC1CCSCC1 (stereo not drawn) [Example 73, Syn-N-[4-(7-hydroxy-quinoline-8-sulfonylamino)-cyclohexyl]-2-(tetrahydro-thiopyran-4-yloxy)-nicotinamide]
[1]
  IC50: 0.03 nM
